According to ChEMBL document CHEMBL6134848, “Deuteration Strategy-Inspired Design of Novel Diarylpyrimidine Derivatives as Potent Non-Nucleoside Reverse Transcriptase Inhibitors Featuring Improved Efficacy, Selectivity, and Druggability” (J Med Chem, 2025):

Columns and labels:
[1] = tested on: Human immunodeficiency virus 1; assay: Antiviral activity against wild-type HIV-1 IIIB infected in human MT4 cells assessed as protection against virus-induced cytopathicity measured after 5 days post-infection by MTT assay; type: functional, organism-based; conditions: Human immunodeficiency virus 1, IIIB, MT4, 120 h
[2] = Cytotoxicity against human MT4 cells assessed as reduction in cell viability by MTT assay; type: toxicity, cell-based
[3] = Selectivity index, ratio of CC50 for cytotoxicity against human MT4 cells to EC50 for antiviral activity against wild-type HIV-1 IIIB infected in human MT4 cells; type: toxicity, cell-based; conditions: read-out: Ratio CC50/EC50
[4] = tested on: Human immunodeficiency virus 1; assay: Antiviral activity against drug-resistant HIV-1 harboring RT L100I mutant infected in human MT4 cells assessed as protection against virus-induced cytopathicity measured after 5 days post-infection by MTT assay; type: functional, organism-based; conditions: Human immunodeficiency virus 1, MT4, 120 h
[5] = tested on: Human immunodeficiency virus 1; assay: Antiviral activity against drug-resistant HIV-1 harboring RT K103N mutant infected in human MT4 cells assessed as protection against virus-induced cytopathicity measured after 5 days post-infection by MTT assay; type: functional, organism-based; conditions: Human immunodeficiency virus 1, MT4, 120 h
[6] = tested on: Human immunodeficiency virus 1; assay: Antiviral activity against drug-resistant HIV-1 harboring RT Y181C mutant infected in human MT4 cells assessed as protection against virus-induced cytopathicity measured after 5 days post-infection by MTT assay; type: functional, organism-based; conditions: Human immunodeficiency virus 1, MT4, 120 h
[7] = tested on: Human immunodeficiency virus 1; assay: Antiviral activity against drug-resistant HIV-1 harboring RT Y188L mutant infected in human MT4 cells assessed as protection against virus-induced cytopathicity measured after 5 days post-infection by MTT assay; type: functional, organism-based; conditions: Human immunodeficiency virus 1, MT4, 120 h
[8] = tested on: Human immunodeficiency virus 1; assay: Antiviral activity against drug-resistant HIV-1 harboring RT E138K mutant infected in human MT4 cells assessed as protection against virus-induced cytopathicity measured after 5 days post-infection by MTT assay; type: functional, organism-based; conditions: Human immunodeficiency virus 1, MT4, 120 h
[9] = tested on: Human immunodeficiency virus 1; assay: Antiviral activity against drug-resistant HIV-1 harboring RT F227L/V106A mutant infected in human MT4 cells assessed as protection against virus-induced cytopathicity measured after 5 days post-infection by MTT assay; type: functional, organism-based; conditions: Human immunodeficiency virus 1, MT4, 120 h
[10] = tested on: Human immunodeficiency virus 1; assay: Antiviral activity against drug-resistant HIV-1 harboring RT RES056 mutant infected in human MT4 cells assessed as protection against virus-induced cytopathicity measured after 5 days post-infection by MTT assay; type: functional, organism-based; conditions: Human immunodeficiency virus 1, MT4, 120 h
[11] = biological target: Human immunodeficiency virus type 1 reverse transcriptase (Human immunodeficiency virus 1, UniProt Q72547); assay: Inhibition of recombinant wild type HIV-1 reverse transcriptase incubated for 40 mins in presence of poly(rA) template/oligo(dT)16 primer by Pico-Green dye based analysis
[12] = Metabolic stability in human liver microsomes assessed as half life at 1 uM measured up to 45 mins by LC/MS/MS analysis; type: ADME, Microsome; conditions: liver microsomes

## [2H]C([2H])([2H])c1cc(C#N)cc(C)c1Oc1nc(NC2CCN(Cc3ccc(S(N)(=O)=O)cc3)CC2)nc2ccccc12
[1]
  EC50: 3.07 nM
[2]
  CC50: > 229000 nM
[3]
  selectivity ratio: > 74600
[4]
  EC50: 8.11 nM
[5]
  EC50: 6.92 nM
[6]
  EC50: 12.9 nM
[7]
  EC50: 54.2 nM
[8]
  EC50: 10.6 nM
[9]
  EC50: 44.3 nM
[10]
  EC50: 245 nM
[11]
  IC50: 210 nM

## [2H]C([2H])([2H])c1cc(C#N)cc(C([2H])([2H])[2H])c1Oc1nc(NC2CCN(Cc3ccc(C(N)=O)cc3)CC2)nc2sccc12
[1]
  EC50: 4.19 nM
[2]
  CC50: > 241000 nM
[3]
  selectivity ratio: > 57500
[4]
  EC50: 21.6 nM
[5]
  EC50: 4.58 nM
[6]
  EC50: 53.8 nM
[7]
  EC50: 61.6 nM
[8]
  EC50: 62.3 nM
[9]
  EC50: 724 nM
[10]
  EC50: 496 nM
[11]
  IC50: 140 nM

## [2H]C([2H])([2H])c1cc(C#N)cc(C)c1Oc1nc(NC2CCN(Cc3ccc(C(N)=O)cc3)CC2)nc2ccccc12
[1]
  EC50: 5.4 nM
[2]
  CC50: 150000 nM
[3]
  selectivity ratio: 27900
[4]
  EC50: 14.5 nM
[5]
  EC50: 4.86 nM
[6]
  EC50: 47 nM
[7]
  EC50: 67.8 nM
[8]
  EC50: 63.1 nM
[9]
  EC50: 1270 nM
[10]
  EC50: 1810 nM
[11]
  IC50: 210 nM

## [2H]C([2H])([2H])c1cc(C#N)cc(C)c1Oc1nc(NC2CCN(Cc3ccc(S(N)(=O)=O)cc3)CC2)nc2scnc12
[1]
  EC50: 2.8 nM
[2]
  CC50: 14900 nM
[3]
  selectivity ratio: 5320
[4]
  EC50: 10.9 nM
[5]
  EC50: 4.39 nM
[6]
  EC50: 10.1 nM
[7]
  EC50: 45.5 nM
[8]
  EC50: 28.1 nM
[9]
  EC50: 181 nM
[10]
  EC50: 57.6 nM
[11]
  IC50: 150 nM

## [2H]C([2H])([2H])c1cc(C#N)cc(C([2H])([2H])[2H])c1Oc1nc(NC2CCN(Cc3ccc(C(N)=O)cc3)CC2)nc2ccccc12
[1]
  EC50: 7.31 nM
[2]
  CC50: 90200 nM
[3]
  selectivity ratio: 12300
[4]
  EC50: 32.9 nM
[5]
  EC50: 23.6 nM
[6]
  EC50: 61.8 nM
[7]
  EC50: 60.7 nM
[8]
  EC50: 38.1 nM
[9]
  EC50: 186 nM
[10]
  EC50: 1390 nM
[11]
  IC50: 210 nM

## [2H]C([2H])([2H])c1cc(C#N)cc(C)c1Oc1nc(NC2CCN(Cc3ccc(S(N)(=O)=O)cc3)CC2)nc2sccc12
[1]
  EC50: 6.39 nM
[2]
  CC50: > 227000 nM
[3]
  selectivity ratio: > 35500
[4]
  EC50: 17.4 nM
[5]
  EC50: 8.84 nM
[6]
  EC50: 21.2 nM
[7]
  EC50: 55.5 nM
[8]
  EC50: 49.7 nM
[9]
  EC50: 428 nM
[10]
  EC50: 148 nM
[11]
  IC50: 160 nM

## Cc1cc(-c2ccc(C#N)cc2)cc(C)c1Nc1ccnc(Nc2ccc(C#N)cc2)n1
[1]
  EC50: 1.86 nM
[2]
  CC50: 6110 nM
[3]
  selectivity ratio: 3280
[4]
  EC50: 4.02 nM
[5]
  EC50: 2.88 nM
[6]
  EC50: 7.26 nM
[7]
  EC50: 40.5 nM
[8]
  EC50: 8.16 nM
[9]
  EC50: 796 nM
[10]
  EC50: 54.3 nM
[11]
  IC50: 340 nM

## [2H]C([2H])([2H])c1cc(C#N)cc(C)c1Oc1nc(NC2CCN(Cc3ccc(C(N)=O)cc3)CC2)nc2sccc12
[1]
  EC50: 8.92 nM
[2]
  CC50: > 242000 nM
[3]
  selectivity ratio: > 27200
[4]
  EC50: 29.2 nM
[5]
  EC50: 18.1 nM
[6]
  EC50: 47.6 nM
[7]
  EC50: 94.5 nM
[8]
  EC50: 63.5 nM
[9]
  EC50: 71.5 nM
[10]
  EC50: 320 nM
[11]
  IC50: 120 nM

## [2H]C([2H])([2H])c1cc(-c2ccc(C#N)cc2)cc(C)c1Nc1ccnc(Nc2ccc(C#N)cc2)n1
[1]
  EC50: 2.5 nM
[2]
  CC50: 5940 nM
[3]
  selectivity ratio: 2370
[12]
  half-life at 1 µM: 16.6 min
[4]
  EC50: 2.74 nM
[5]
  EC50: 3.81 nM
[6]
  EC50: 6.14 nM
[7]
  EC50: 57.5 nM
[8]
  EC50: 8.64 nM
[9]
  EC50: 626 nM
[10]
  EC50: 58.6 nM
[11]
  IC50: 380 nM

## [2H]C([2H])([2H])c1cc(C#N)cc(C)c1Oc1nc(NC2CCN(Cc3ccc(S(N)(=O)=O)cc3)CC2)nc2ccsc12
[1]
  EC50: 5.77 nM
[2]
  CC50: 178000 nM
[3]
  selectivity ratio: 31200
[4]
  EC50: 8.56 nM
[5]
  EC50: 3.67 nM
[6]
  EC50: 12.1 nM
[7]
  EC50: 12 nM
[8]
  EC50: 12.6 nM
[9]
  EC50: 9.97 nM
[10]
  EC50: 217 nM
[11]
  IC50: 190 nM

## [2H]C([2H])([2H])c1cc(C#N)cc(C)c1Oc1nc(NC2CCN(Cc3ccc(C(N)=O)cc3)CC2)nc2ccsc12
[1]
  EC50: 12.8 nM
[2]
  CC50: > 242000 nM
[3]
  selectivity ratio: > 18900
[4]
  EC50: 68.2 nM
[5]
  EC50: 11.2 nM
[6]
  EC50: 65.3 nM
[7]
  EC50: 59.9 nM
[8]
  EC50: 53.5 nM
[9]
  EC50: 65.2 nM
[10]
  EC50: 887 nM
[11]
  IC50: 150 nM
